Our source for the melting point, solubility and fold induction values is US10570117B2, “Phenylimidazole compound” (Otsuka Pharmaceutical Factory, Inc., priority 2015, dated 2020).

Converted amounts (≈) assume the structure as drawn. Read-outs that look alike come from different tables or passages of the source. Where only a bound is given, the exact number is not on record here.

Series [1] in a line: Solubility in gastric juice or intestinal juice model fluid (precipitation method using DMSO). It counts as physicochemical. As to conditions: room temperature. The procedure, abridged: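 Dissolved amount (μg/mL) quantified by UV of filtrate versus pre-made calibration curves. Precipitation approach: DMSO solutions spiked into pH 1.2 (JP 1st fluid) or pH 6.8 (JP 2nd fluid) medium, shaken at room temperature for 24 h before insolubles were filtered off.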

For series [2], the system named is lipoprotein lipase (LPL) gene. The series can be described thus: LPL mRNA elevating action (RT-PCR quantification of LPL mRNA in C2Cl2 cells). The class given is cell-based, mouse. The following applies: Mus musculus, 24 h, compound 10 μM, ratio relative to the amount of LPL mRNA in cells with DMSO only, read-out: Rate of increase in LPL mRNA. The essentials:
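Read-out is LPL mRNA relative to vehicle (DMSO = 1), measured by reverse transcription and 20-cycle real-time PCR. Cells were the mouse striated-muscle line C2Cl2, treated 24 h with 10 μM compound in DMEM containing 10% FBS.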

[3] abbreviates: pH 1.2, simulated gastric fluid, kinetic from dmso stock, 1st fluid for Disintegration Test of Japanese Pharmacopoeia (pH: 1.2), read-out: Solubility (μg/mL) 1st fluid.
Where [4] appears, read: pH 6.8, kinetic from dmso stock, 2nd fluid for Disintegration Test of Japanese Pharmacopoeia (pH: 6.8), read-out: Solubility (μg/mL) 2nd fluid.

For `COc1cc(OCc2ccc(C(F)(F)F)cn2)ccc1-c1c(Br)nc(-c2ccc(F)nc2)n1C` [Example 303], the melting point (commonly the temperature of the solid-liquid transition) lay within 130 to 132 °C. In series [1] (setting [3]), the solubility at 24 h was 84.3 µg/mL (≈ 157 µM). Also, the solubility at 24 h in series [1] (setting [4]) was below 0.4 µg/mL. Moreover, the fold induction at 10 µM in series [2] was 3.29.
On the same counts, the results for `COc1cc(OCc2ccc(C(F)(F)F)cn2)ccc1-c1c(Cl)nc(-c2ccc(Cl)nc2)n1C` [Example 309] are 133 to 135 °C, 14.8 µg/mL (≈ 29.1 µM), below 0.4 µg/mL and 2.37.
On the same counts, the results for `COc1cc(O)ccc1-c1[nH]c(-c2ccc(F)nc2)nc1Cl` [Example 313] are 209 to 214 °C (dec.), 62.3 µg/mL (≈ 195 µM), 5 µg/mL (≈ 15.6 µM) and 1.33.
On the same counts, the results for `COc1cc(OCc2ccc(C(F)(F)F)[n+]([O-])c2)ccc1-c1cnc(-c2ccc(F)nc2)[nH]1` [Example 314] are 234 to 239 °C, 50.2 µg/mL (≈ 109 µM), 0.9 µg/mL (≈ 1.95 µM) and 1.66.
`COc1cc(OCc2ccc(C(F)(F)F)[n+]([O-])c2)ccc1-c1[nH]c(-c2ccc(F)nc2)nc1Cl` [Example 315] had a melting point above 250 °C. Further, the solubility at 24 h in series [1] (setting [3]) was 1.8 µg/mL (≈ 3.64 µM). Besides, the solubility at 24 h in series [1] (setting [4]) was 2.7 µg/mL (≈ 5.46 µM). Besides, the fold induction at 10 µM in series [2] worked out at 2.7.
Consider `COc1cc(OCc2c(F)cc(C(F)(F)F)c[n+]2[O-])ccc1-c1cnc(-c2ccc(F)nc2)[nH]1` [Example 316], for which the melting point fell in the range of 162 to 167 °C. Moreover, in series [1] (setting [3]), the solubility at 24 h was 94.4 µg/mL (≈ 197 µM). Moreover, the solubility at 24 h in series [1] (setting [4]) was determined as 4.9 µg/mL (≈ 10.2 µM). Moreover, the fold induction at 10 µM in series [2] came to 2.53.
In turn, `COc1cc(OCc2c(F)cc(C(F)(F)F)c[n+]2[O-])ccc1-c1[nH]c(-c2ccc(F)nc2)nc1Cl` [Example 317] showed a melting point of 105 to 110 °C. For the same compound, in series [1] (setting [3]), the solubility at 24 h was 69.1 µg/mL (≈ 135 µM). Besides, the solubility at 24 h in series [1] (setting [4]) stood at 9.3 µg/mL (≈ 18.1 µM). Besides, the fold induction at 10 µM in series [2] was 2.9.
`COc1cc(OCc2c(F)cc(C(F)(F)F)c[n+]2[O-])ccc1-c1[nH]c(-c2ccc(F)nc2)nc1Br` [Example 318] had a melting point of 105 to 120 °C. Besides, the solubility at 24 h in series [1] (setting [3]) is 100 µg/mL (≈ 180 µM). The solubility at 24 h in series [1] (setting [4]) was found to be 8.7 µg/mL (≈ 15.6 µM). The fold induction at 10 µM in series [2] is 3.15.
On the same counts, the results for `COc1cc(OCc2ncc(C(F)(F)F)cc2F)ccc1-c1[nH]c(-c2ccc(F)nc2)nc1F` [Example 319] are 156 to 158 °C, 4.7 µg/mL (≈ 9.78 µM), 0.5 µg/mL (≈ 1.04 µM) and 3.74.
On the same counts, the results for `COc1cc(OCc2cnc(Cl)s2)ccc1-c1cnc(-c2ccc(F)nc2)[nH]1` [Example 321] are 109 to 116 °C, 69.4 µg/mL (≈ 166 µM), 1.9 µg/mL (≈ 4.56 µM) and 1.82.
On the same counts, the results for `COc1cc(OCc2cc(C(C)C)no2)ccc1-c1cnc(-c2ccc(F)nc2)[nH]1` [Example 322] are 227 to 232 °C, 72 µg/mL (≈ 176 µM), 1.3 µg/mL (≈ 3.18 µM) and 1.55.
For the compound `COc1cc(-c2cnc(C3CCC(F)(F)CC3)[nH]2)ccc1OCc1ncc(C(F)(F)F)cc1F` [Example 323], the melting point lay within 157 to 159 °C. In series [1] (setting [3]), the solubility at 24 h was 78.3 µg/mL (≈ 161 µM). The solubility at 24 h in series [1] (setting [4]) was 17 µg/mL (≈ 35 µM). Further, the fold induction at 10 µM in series [2] came to 1.72.
On the same counts, the results for `COc1cc(-c2[nH]c(-c3ccc(F)nc3)nc2Cl)ccc1OCc1ncc(C(F)(F)F)cc1F` [Example 325] are 165 to 170 °C, 4.7 µg/mL (≈ 9.46 µM), 1.3 µg/mL (≈ 2.62 µM) and 2.44.
On the same counts, the results for `COc1cc(-c2[nH]c(C3CCC(F)(F)CC3)nc2Cl)ccc1OCc1ncc(C(F)(F)F)cc1F` [Example 326] are 173 to 176 °C, 63.7 µg/mL (≈ 123 µM), 0.7 µg/mL (≈ 1.35 µM) and 2.63.
Regarding `COc1cc(-c2[nH]c(C3CCC(F)(F)CC3)nc2Br)ccc1OCc1ncc(C(F)(F)F)cc1F` [Example 327], the melting point was in the range of 203 to 204 °C. Also, the solubility at 24 h in series [1] (setting [3]) was 110 µg/mL (≈ 194 µM). In series [1] (setting [4]), the solubility at 24 h was determined as 0.7 µg/mL (≈ 1.24 µM). Also, the fold induction at 10 µM in series [2] is 3.06.
On the same counts, the results for `CCOC(C)n1cc(-c2ccc(OCc3ccc(C(F)(F)F)nc3)cc2OC)nc1-c1ccc(F)nc1` (centres unmarked) [Example 328] are 102 to 104 °C, 44.2 µg/mL (≈ 85.6 µM), 0.4 µg/mL (≈ 0.774 µM) and 2.41.
In turn, `COc1cc(OCc2ccc(C(F)(F)F)nc2)ccc1-c1[nH]c(-c2ccc(F)nc2)nc1I` [Example 329] came in with a melting point of 195 to 208 °C. In addition, in series [1] (setting [3]), the solubility at 24 h was 5.8 µg/mL (≈ 10.2 µM). Besides, the solubility at 24 h in series [1] (setting [4]) turned out to be 13.6 µg/mL (≈ 23.8 µM). Moreover, the fold induction at 10 µM in series [2] is 2.96.
As to `CCOC(C)n1c(-c2ccc(F)nc2)nc(-c2ccc(OCc3ccc(C(F)(F)F)nc3)cc2OC)c1I` (centres unmarked) [Example 330], the melting point was 129 to 131 °C. In addition, the solubility at 24 h in series [1] (setting [3]) is 6.5 µg/mL (≈ 10.1 µM). Also, in series [1] (setting [4]), the solubility at 24 h turned out to be 0.9 µg/mL (≈ 1.4 µM). For the same compound, the fold induction at 10 µM in series [2] is 1.88.
On the same counts, the results for `COc1cc(OCc2ncc(C(F)(F)F)cc2F)ccc1-c1[nH]c(-c2ccc(F)nc2)nc1C` [Example 331] are 100 to 105 °C, 94.6 µg/mL (≈ 199 µM), 8 µg/mL (≈ 16.8 µM) and 2.17.
For the compound `COc1cc(OCc2ccccc2)ccc1-c1[nH]c(-c2ccc(F)nc2)nc1C` [Example 332], the melting point was 169 to 171 °C. Further, the solubility at 24 h in series [1] (setting [3]) is 77.7 µg/mL (≈ 200 µM). The solubility at 24 h in series [1] (setting [4]) worked out at 3.3 µg/mL (≈ 8.47 µM). Also, the fold induction at 10 µM in series [2] is 1.91.
As for `COc1cc(O)ccc1-c1[nH]c(-c2ccc(F)nc2)nc1C` [Example 333], the melting point was 154 to 159 °C. In addition, in series [1] (setting [3]), the solubility at 24 h was 59 µg/mL (≈ 197 µM). The solubility at 24 h in series [1] (setting [4]) came out at 5.2 µg/mL (≈ 17.4 µM). In series [2], the fold induction at 10 µM turned out to be 1.22.
`COc1cc(OCc2noc(C3CC3)n2)ccc1-c1cnc(-c2ccc(F)nc2)[nH]1` [Example 334] registered a melting point of 153 to 158 °C. The solubility at 24 h in series [1] (setting [3]) was 76.6 µg/mL (≈ 188 µM). The solubility at 24 h in series [1] (setting [4]) was determined as 7.8 µg/mL (≈ 19.1 µM). Besides, the fold induction at 10 µM in series [2] is 1.78.
On the same counts, the results for `COc1cc(OCc2ncc(C(F)(F)F)cc2F)ccc1-c1cnc(C2CCC(F)(F)CC2)[nH]1` [Example 335] are 105 to 110 °C, 93.4 µg/mL (≈ 192 µM), 6.6 µg/mL (≈ 13.6 µM) and 2.37.
For the compound `COc1cc(OCc2ncc(C(F)(F)F)cc2F)ccc1-c1[nH]c(C2CCC(F)(F)CC2)nc1Cl` [Example 336], the melting point lay in the range of 172 to 174 °C. Moreover, the solubility at 24 h in series [1] (setting [3]) is 89.3 µg/mL (≈ 172 µM). Further, in series [1] (setting [4]), the solubility at 24 h was found to be 0.4 µg/mL (≈ 0.769 µM). For the same compound, the fold induction at 10 µM in series [2] was determined as 3.23.
On the same counts, the results for `COc1cc(OCc2ncc(C(F)(F)F)cc2F)ccc1-c1[nH]c(C2CCC(F)(F)CC2)nc1Br` [Example 337] are 190 to 191 °C, 110 µg/mL (≈ 195 µM), 0.5 µg/mL (≈ 0.886 µM) and 3.07.
The compound `COc1cc(-c2cnc(C3CCC(F)(F)CC3)[nH]2)ccc1O` [Example 339] showed a melting point of 131 to 136 °C. The solubility at 24 h in series [1] (setting [3]) was above 62 µg/mL. The solubility at 24 h in series [1] (setting [4]) was determined as 58.9 µg/mL (≈ 191 µM). For the same compound, the fold induction at 10 µM in series [2] came to 1.32.
`Oc1ccc(-c2cnc(-c3ccc(F)nc3)[nH]2)cc1` [Example 343] yielded a melting point above 270 °C. For the same compound, the solubility at 24 h in series [1] (setting [3]) is 50 µg/mL (≈ 196 µM). The solubility at 24 h in series [1] (setting [4]) worked out at 39.2 µg/mL (≈ 154 µM). In addition, the fold induction at 10 µM in series [2] came out at 1.42.
On the same counts, the results for `Fc1ccc(-c2ncc(-c3ccc(OCc4ncc(C(F)(F)F)cc4F)cc3)[nH]2)cn1` [Example 344] are 174 to 177 °C, 85.9 µg/mL (≈ 199 µM), 4.6 µg/mL (≈ 10.6 µM) and 1.83.
On the same counts, the results for `Fc1ccc(-c2nc(Br)c(-c3ccc(OCc4ncc(C(F)(F)F)cc4F)cc3)[nH]2)cn1` [Example 345] are 155 to 158 °C, below 0.4 µg/mL, below 0.4 µg/mL and 2.39.
In turn, `COc1cc(OCc2ncc(C(F)(F)F)cc2F)ccc1-c1[nH]c(C2CCC(F)(F)C2)nc1Cl` (centres unmarked) [Example 346] had a melting point of 147 to 149 °C. The solubility at 24 h in series [1] (setting [3]) is 99.1 µg/mL (≈ 196 µM). Moreover, in series [1] (setting [4]), the solubility at 24 h is below 0.4 µg/mL. For the same compound, in series [2], the fold induction at 10 µM was 3.18.
`COc1cc(-c2[nH]c(C3CCC(F)(F)C3)nc2Cl)ccc1OCc1ncc(C(F)(F)F)cc1F` (centres unmarked) [Example 347] displayed a melting point of 142 to 147 °C. Further, in series [1] (setting [3]), the solubility at 24 h is 83.2 µg/mL (≈ 164 µM). In series [1] (setting [4]), the solubility at 24 h is below 0.4 µg/mL. Further, the fold induction at 10 µM in series [2] is 3.28.
With `COc1cc(-c2cnc(C3CC(F)(F)C3)[nH]2)ccc1OCc1ncc(C(F)(F)F)cc1F` [Example 348], the melting point was 105 to 110 °C. The solubility at 24 h in series [1] (setting [3]) was 89.6 µg/mL (≈ 196 µM). In addition, the solubility at 24 h in series [1] (setting [4]) came to 22.4 µg/mL (≈ 49 µM). Moreover, the fold induction at 10 µM in series [2] turned out to be 1.76.
